Laboratory results as given in the supplement of paper PMC10307832.

Columns and labels:
Assay in all cases: relative viability (nuclei count vs DMSO), 5 days (fraction); higher = more cells survive
SK-LU-1 = tested on: SK-LU-1
Summary of the method: (§1)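 Values are medians from duplicate plates. Each reflects relative viability, defined as the nuclei count of treated wells over that of vehicle wells. Lung cancer cell lines in 1536-well plates were pin-tool dosed one day after seeding with one drug alone or with a fixed anchor-drug dose plus five library-drug doses (not always all listed) in √10 steps, then fixed, stained and imaged at 4× after 5 days.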

LCLC-97TM1 = tested on: LCLC-97TM1
Summary of the method: as §1

NCI-H1650 = tested on: NCI-H1650
Summary of the method: as §1

CAL-12T = tested on: CAL-12T
Summary of the method: as §1

NCI-H3122 = tested on: NCI-H3122
Summary of the method: as §1

NCI-H322M = tested on: NCI-H322M
Summary of the method: as §1

LXF-289 = tested on: LXF-289
Summary of the method: as §1

LCLC-103H = tested on: LCLC-103H
Summary of the method: as §1

HOP-62 = tested on: HOP-62
Summary of the method: as §1

NCI-H1437 = tested on: NCI-H1437
Summary of the method: as §1

NCI-H647 = tested on: NCI-H647
Summary of the method: as §1

NCI-H2405 = tested on: NCI-H2405
Summary of the method: as §1

HCC-44 = tested on: HCC-44
Summary of the method: as §1

NCI-H2087 = tested on: NCI-H2087
Summary of the method: as §1

NCI-H1395 = tested on: NCI-H1395
Summary of the method: as §1

BEN = tested on: BEN
Summary of the method: as §1

201T = tested on: 201T
Summary of the method: as §1

NCI-H1944 = tested on: NCI-H1944
Summary of the method: as §1

NCI-H727 = tested on: NCI-H727
Summary of the method: as §1

HCC-827 = tested on: HCC-827
Summary of the method: as §1

NCI-H1793 = tested on: NCI-H1793
Summary of the method: as §1

NCI-H2228 = tested on: NCI-H2228
Summary of the method: as §1

RERF-LC-KJ = tested on: RERF-LC-KJ
Summary of the method: as §1

CC1(C)CCC(c2ccc(Cl)cc2)=C(CN2CCN(c3ccc(C(=O)NS(=O)(=O)c4ccc(N[C@H](CCN5CCOCC5)CSc5ccccc5)c(S(=O)(=O)C(F)(F)F)c4)cc3)CC2)C1 [Navitoclax] + CS(=O)(=O)N1CCN(Cc2cc3nc(-c4cccc5[nH]ncc45)nc(N4CCOCC4)c3s2)CC1 [Pictilisib] (partner 1 µM)
relative viability (SK-LU-1; first compound 0.005 µM): 0.557
relative viability (SK-LU-1; first compound 0.01581 µM): 0.725
relative viability (SK-LU-1; first compound 0.05 µM): 0.499
relative viability (SK-LU-1; first compound 0.1581 µM): 0.522
relative viability (SK-LU-1; first compound 0.5 µM): 0.483
relative viability (LCLC-97TM1; first compound 0.005 µM): 0.255
relative viability (LCLC-97TM1; first compound 0.01581 µM): 0.146
relative viability (LCLC-97TM1; first compound 0.05 µM): 0.193
relative viability (LCLC-97TM1; first compound 0.1581 µM): 0.187
relative viability (LCLC-97TM1; first compound 0.5 µM): 0.153
relative viability (NCI-H1650; first compound 0.005 µM): 0.541
relative viability (NCI-H1650; first compound 0.01581 µM): 0.737
relative viability (NCI-H1650; first compound 0.05 µM): 0.656
relative viability (NCI-H1650; first compound 0.1581 µM): 0.623
relative viability (NCI-H1650; first compound 0.5 µM): 0.394
relative viability (CAL-12T; first compound 0.005 µM): 0.549
relative viability (CAL-12T; first compound 0.01581 µM): 0.419
relative viability (CAL-12T; first compound 0.05 µM): 0.404
relative viability (CAL-12T; first compound 0.1581 µM): 0.522
relative viability (CAL-12T; first compound 0.5 µM): 0.393
relative viability (NCI-H3122; first compound 0.005 µM): 0.592
relative viability (NCI-H3122; first compound 0.01581 µM): 0.585
relative viability (NCI-H3122; first compound 0.05 µM): 0.537
relative viability (NCI-H3122; first compound 0.1581 µM): 0.601
relative viability (NCI-H3122; first compound 0.5 µM): 0.55
relative viability (NCI-H322M; first compound 0.005 µM): 0.485
relative viability (NCI-H322M; first compound 0.01581 µM): 0.526
relative viability (NCI-H322M; first compound 0.05 µM): 0.565
relative viability (NCI-H322M; first compound 0.1581 µM): 0.516
relative viability (NCI-H322M; first compound 0.5 µM): 0.562
relative viability (LXF-289; first compound 0.005 µM): 0.821
relative viability (LXF-289; first compound 0.01581 µM): 0.872
relative viability (LXF-289; first compound 0.05 µM): 0.737
relative viability (LXF-289; first compound 0.1581 µM): 0.799
relative viability (LXF-289; first compound 0.5 µM): 0.768
relative viability (LCLC-103H; first compound 0.005 µM): 0.588
relative viability (LCLC-103H; first compound 0.01581 µM): 0.611
relative viability (LCLC-103H; first compound 0.05 µM): 0.664
relative viability (LCLC-103H; first compound 0.1581 µM): 0.611
relative viability (LCLC-103H; first compound 0.5 µM): 0.799
relative viability (HOP-62; first compound 0.005 µM): 0.803
relative viability (HOP-62; first compound 0.01581 µM): 0.921
relative viability (HOP-62; first compound 0.05 µM): 0.5
relative viability (HOP-62; first compound 0.1581 µM): 0.769
relative viability (HOP-62; first compound 0.5 µM): 1.17
relative viability (NCI-H1437; first compound 0.005 µM): 0.409
relative viability (NCI-H1437; first compound 0.01581 µM): 0.537
relative viability (NCI-H1437; first compound 0.05 µM): 0.501
relative viability (NCI-H1437; first compound 0.1581 µM): 0.445
relative viability (NCI-H1437; first compound 0.5 µM): 0.477
relative viability (NCI-H647; first compound 0.005 µM): 0.539
relative viability (NCI-H647; first compound 0.01581 µM): 0.396
relative viability (NCI-H647; first compound 0.05 µM): 0.385
relative viability (NCI-H647; first compound 0.1581 µM): 0.422
relative viability (NCI-H647; first compound 0.5 µM): 0.453
relative viability (NCI-H2405; first compound 0.005 µM): 0.409
relative viability (NCI-H2405; first compound 0.01581 µM): 0.754
relative viability (NCI-H2405; first compound 0.05 µM): 0.434
relative viability (NCI-H2405; first compound 0.1581 µM): 0.451
relative viability (NCI-H2405; first compound 0.5 µM): 0.41
relative viability (HCC-44; first compound 0.005 µM): 0.656
relative viability (HCC-44; first compound 0.01581 µM): 0.641
relative viability (HCC-44; first compound 0.05 µM): 0.849
relative viability (HCC-44; first compound 0.1581 µM): 0.57
relative viability (HCC-44; first compound 0.5 µM): 0.456
relative viability (NCI-H2087; first compound 0.005 µM): 0.806
relative viability (NCI-H2087; first compound 0.01581 µM): 0.976
relative viability (NCI-H2087; first compound 0.05 µM): 0.54
relative viability (NCI-H2087; first compound 0.1581 µM): 1.02
relative viability (NCI-H2087; first compound 0.5 µM): 0.887
relative viability (NCI-H1395; first compound 0.005 µM): 0.692
relative viability (NCI-H1395; first compound 0.01581 µM): 0.645
relative viability (NCI-H1395; first compound 0.05 µM): 0.563
relative viability (NCI-H1395; first compound 0.1581 µM): 0.818
relative viability (NCI-H1395; first compound 0.5 µM): 0.67
relative viability (BEN; first compound 0.005 µM): 0.548
relative viability (BEN; first compound 0.01581 µM): 0.678
relative viability (BEN; first compound 0.05 µM): 0.625
relative viability (BEN; first compound 0.1581 µM): 0.602
relative viability (BEN; first compound 0.5 µM): 0.364
relative viability (201T; first compound 0.005 µM): 0.661
relative viability (201T; first compound 0.01581 µM): 0.738
relative viability (201T; first compound 0.05 µM): 0.677
relative viability (201T; first compound 0.1581 µM): 0.65
relative viability (201T; first compound 0.5 µM): 0.707
relative viability (NCI-H1944; first compound 0.005 µM): 0.336
relative viability (NCI-H1944; first compound 0.01581 µM): 0.371
relative viability (NCI-H1944; first compound 0.05 µM): 0.374
relative viability (NCI-H1944; first compound 0.1581 µM): 0.357
relative viability (NCI-H1944; first compound 0.5 µM): 0.397
relative viability (NCI-H727; first compound 0.005 µM): 0.398
relative viability (NCI-H727; first compound 0.01581 µM): 0.423
relative viability (NCI-H727; first compound 0.1581 µM): 0.33
relative viability (NCI-H727; first compound 0.5 µM): 0.171
relative viability (HCC-827; first compound 0.005 µM): 1.12
relative viability (HCC-827; first compound 0.01581 µM): 1
relative viability (HCC-827; first compound 0.05 µM): 0.933
relative viability (HCC-827; first compound 0.1581 µM): 0.78
relative viability (HCC-827; first compound 0.5 µM): 0.975
relative viability (NCI-H1793; first compound 0.005 µM): 0.317
relative viability (NCI-H1793; first compound 0.01581 µM): 0.505
relative viability (NCI-H1793; first compound 0.05 µM): 0.301
relative viability (NCI-H1793; first compound 0.1581 µM): 0.226
relative viability (NCI-H1793; first compound 0.5 µM): 0.242
relative viability (NCI-H2228; first compound 0.005 µM): 0.431
relative viability (NCI-H2228; first compound 0.01581 µM): 0.526
relative viability (NCI-H2228; first compound 0.05 µM): 0.367
relative viability (NCI-H2228; first compound 0.1581 µM): 0.366
relative viability (NCI-H2228; first compound 0.5 µM): 0.304
relative viability (RERF-LC-KJ; first compound 0.005 µM): 0.446
relative viability (RERF-LC-KJ; first compound 0.01581 µM): 0.55
relative viability (RERF-LC-KJ; first compound 0.05 µM): 0.589
relative viability (RERF-LC-KJ; first compound 0.1581 µM): 0.476
relative viability (RERF-LC-KJ; first compound 0.5 µM): 0.568
